In PubChem BioAssay (NCI):
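Interpolation was linear, between the two tested concentrations surrounding the appropriate level; five concentrations were tested over 48 hours in 96-well plates. TGI denotes the concentration required for complete inhibition of growth.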

Key:
Assay in all cases: NCI anticancer screen, dose series, 48 h
[1] = test system: 786-0 renal
[2] = test system: A498 renal
[3] = test system: A549 NSCLC
[4] = test system: ACHN renal
[5] = test system: BT-549 breast
[6] = test system: CAKI-1 renal
[7] = test system: CCRF-CEM leukemia
[8] = test system: COLO 205 colon
[9] = test system: DU-145 prostate
[10] = test system: EKVX NSCLC
[11] = test system: HCC-2998 colon
[12] = test system: HCT-116 colon
[13] = test system: HCT-15 colon
[14] = test system: HL-60(TB) leukemia
[15] = test system: HOP-62 NSCLC
[16] = test system: HOP-92 NSCLC
[17] = test system: HS 578T breast
[18] = test system: HT29 colon
[19] = test system: IGROV1 ovarian
[20] = test system: K-562 leukemia
[21] = test system: KM12 colon
[22] = test system: LOX IMVI melanoma
[23] = test system: M14 melanoma
[24] = test system: MALME-3M melanoma
[25] = test system: MCF7 breast
[26] = test system: MDA-MB-231 breast
[27] = test system: MDA-MB-435
[28] = test system: MDA-N
[29] = test system: MOLT-4 leukemia
[30] = test system: NCI-H226 lung
[31] = test system: NCI-H23 lung
[32] = test system: NCI-H460 lung
[33] = test system: NCI-H522 lung
[34] = test system: NCI/ADR-RES ovarian
[35] = test system: OVCAR-3 ovarian
[36] = test system: OVCAR-4 ovarian
[37] = test system: OVCAR-5 ovarian
[38] = test system: OVCAR-8 ovarian
[39] = test system: PC-3 prostate
[40] = test system: RPMI-8226 leukemia
[41] = test system: RXF 393 renal
[42] = test system: SF-268 CNS
[43] = test system: SF-295 CNS
[44] = test system: SF-539 CNS
[45] = test system: SK-MEL-2 melanoma
[46] = test system: SK-MEL-28 melanoma
[47] = test system: SK-MEL-5 melanoma
[48] = test system: SK-OV-3 ovarian
[49] = test system: SN12C renal
[50] = test system: SNB-19 CNS
[51] = test system: SNB-75 CNS
[52] = test system: SR leukemia
[53] = test system: SW-620 colon
[54] = test system: T-47D breast
[55] = test system: TK-10 renal
[56] = test system: U251 CNS
[57] = test system: UACC-257 melanoma
[58] = test system: UACC-62 melanoma
[59] = test system: UO-31 renal

## NC(Cc1cnc(I)[nH]1)C(=O)O (configuration not stated)
[1]
  TGI: > 100 µM
[2]
  TGI: > 100 µM
[3]
  TGI: > 100 µM
[4]
  TGI: > 100 µM
[5]
  TGI: > 100 µM
[6]
  TGI: > 100 µM
[7]
  TGI: > 100 µM
[8]
  TGI: > 100 µM
[9]
  TGI: > 100 µM
[10]
  TGI: > 100 µM
[11]
  TGI: > 100 µM
[12]
  TGI: > 100 µM
[13]
  TGI: > 100 µM
[14]
  TGI: 6.41 µM
[15]
  TGI: > 100 µM
[16]
  TGI: 82.9 µM
[17]
  TGI: 63.8 µM
[18]
  TGI: > 100 µM
[19]
  TGI: > 100 µM
[20]
  TGI: > 100 µM
[21]
  TGI: > 100 µM
[22]
  TGI: > 100 µM
[23]
  TGI: > 100 µM
[24]
  TGI: 75.2 µM
[25]
  TGI: > 100 µM
[26]
  TGI: > 100 µM
[27]
  TGI: > 100 µM
[28]
  TGI: > 100 µM
[29]
  TGI: > 100 µM
[30]
  TGI: > 100 µM
[31]
  TGI: > 100 µM
[32]
  TGI: > 100 µM
[33]
  TGI: 72.9 µM
[34]
  TGI: > 100 µM
[35]
  TGI: > 100 µM
[36]
  TGI: > 100 µM
[37]
  TGI: > 100 µM
[38]
  TGI: > 100 µM
[39]
  TGI: > 100 µM
[40]
  TGI: > 100 µM
[41]
  TGI: > 100 µM
[42]
  TGI: > 100 µM
[43]
  TGI: > 100 µM
[44]
  TGI: > 100 µM
[45]
  TGI: > 100 µM
[46]
  TGI: > 100 µM
[47]
  TGI: > 100 µM
[48]
  TGI: > 100 µM
[49]
  TGI: > 100 µM
[50]
  TGI: > 100 µM
[51]
  TGI: > 100 µM
[52]
  TGI: > 100 µM
[53]
  TGI: > 100 µM
[54]
  TGI: > 100 µM
[55]
  TGI: > 100 µM
[56]
  TGI: > 100 µM
[57]
  TGI: > 100 µM
[58]
  TGI: > 100 µM
[59]
  TGI: > 100 µM

## COc1ccc(OC)c(CCc2cc(OC)ccc2OC)c1
[1]
  TGI: > 10 µM
[2]
  TGI: > 10 µM
[3]
  TGI: > 10 µM
[4]
  TGI: > 10 µM
[5]
  TGI: > 10 µM
[6]
  TGI: > 10 µM
[7]
  TGI: > 10 µM
[8]
  TGI: 4.88 µM
[9]
  TGI: > 10 µM
[10]
  TGI: > 10 µM
[11]
  TGI: > 10 µM
[12]
  TGI: > 10 µM
[13]
  TGI: > 10 µM
[14]
  TGI: 5.28 µM
[15]
  TGI: > 10 µM
[16]
  TGI: > 10 µM
[17]
  TGI: 7.29 µM
[18]
  TGI: > 10 µM
[19]
  TGI: > 10 µM
[20]
  TGI: > 10 µM
[21]
  TGI: > 10 µM
[22]
  TGI: > 10 µM
[23]
  TGI: > 10 µM
[24]
  TGI: > 6.95 µM
[25]
  TGI: > 10 µM
[26]
  TGI: > 10 µM
[27]
  TGI: 0.49 µM
[28]
  TGI: 1.64 µM
[29]
  TGI: > 10 µM
[30]
  TGI: > 10 µM
[31]
  TGI: > 10 µM
[32]
  TGI: > 10 µM
[33]
  TGI: > 9.66 µM
[34]
  TGI: > 6.02 µM
[35]
  TGI: 2.09 µM
[36]
  TGI: > 10 µM
[37]
  TGI: > 10 µM
[38]
  TGI: > 10 µM
[39]
  TGI: > 10 µM
[40]
  TGI: > 10 µM
[41]
  TGI: > 8.51 µM
[42]
  TGI: > 10 µM
[43]
  TGI: > 7.31 µM
[44]
  TGI: 4.76 µM
[45]
  TGI: > 8.88 µM
[46]
  TGI: > 10 µM
[47]
  TGI: > 9.35 µM
[48]
  TGI: > 10 µM
[49]
  TGI: > 10 µM
[50]
  TGI: > 10 µM
[51]
  TGI: 9.07 µM
[52]
  TGI: > 10 µM
[53]
  TGI: > 10 µM
[54]
  TGI: > 10 µM
[55]
  TGI: > 10 µM
[56]
  TGI: > 10 µM
[57]
  TGI: > 10 µM
[58]
  TGI: > 10 µM
[59]
  TGI: > 10 µM

## O=c1oc2ccccc2c(O)c1/C=N\c1nc(-c2ccc(O)c(O)c2)cs1
[1]
  TGI: 10.2 µM
[2]
  TGI: > 46.7 µM
[3]
  TGI: 26.6 µM
[4]
  TGI: 9.77 µM
[5]
  TGI: 25.8 µM
[6]
  TGI: 16.5 µM
[7]
  TGI: 4.58 µM
[8]
  TGI: 6.76 µM
[9]
  TGI: 17.9 µM
[10]
  TGI: 28.4 µM
[11]
  TGI: 16.3 µM
[12]
  TGI: 7.61 µM
[13]
  TGI: 14.9 µM
[14]
  TGI: 8.31 µM
[15]
  TGI: 31.2 µM
[16]
  TGI: 28.5 µM
[17]
  TGI: > 80.8 µM
[18]
  TGI: 23.6 µM
[19]
  TGI: 23.9 µM
[20]
  TGI: 10.4 µM
[21]
  TGI: 29.6 µM
[22]
  TGI: 14.7 µM
[23]
  TGI: 10.3 µM
[24]
  TGI: 9.17 µM
[25]
  TGI: 17.4 µM
[26]
  TGI: 18.7 µM
[27]
  TGI: 20.4 µM
[28]
  TGI: 18.8 µM
[29]
  TGI: 3.34 µM
[30]
  TGI: 42.2 µM
[31]
  TGI: 9.87 µM
[32]
  TGI: 14.3 µM
[33]
  TGI: 5.29 µM
[34]
  TGI: > 72.2 µM
[35]
  TGI: 5.94 µM
[36]
  TGI: 27.5 µM
[37]
  TGI: 31.9 µM
[38]
  TGI: > 100 µM
[39]
  TGI: 10.6 µM
[40]
  TGI: 5.3 µM
[41]
  TGI: 18.1 µM
[42]
  TGI: 22.1 µM
[43]
  TGI: > 100 µM
[44]
  TGI: 12.5 µM
[45]
  TGI: 7.04 µM
[46]
  TGI: 24.1 µM
[47]
  TGI: 16.9 µM
[48]
  TGI: 21.4 µM
[49]
  TGI: 15.6 µM
[50]
  TGI: 39.1 µM
[51]
  TGI: 15.4 µM
[52]
  TGI: 4.43 µM
[53]
  TGI: 9.64 µM
[54]
  TGI: 32 µM
[55]
  TGI: 10.7 µM
[56]
  TGI: 17.3 µM
[57]
  TGI: 10.3 µM
[58]
  TGI: 16.9 µM
[59]
  TGI: 9.24 µM
